Biological target: Kv1.1 (Homo sapiens, UniProt Q09470)
Assay: two-electrode voltage clamp in Xenopus oocytes, reference opener
Format: cell-based

Sequence of Kv1.1 (Q09470 whole entry): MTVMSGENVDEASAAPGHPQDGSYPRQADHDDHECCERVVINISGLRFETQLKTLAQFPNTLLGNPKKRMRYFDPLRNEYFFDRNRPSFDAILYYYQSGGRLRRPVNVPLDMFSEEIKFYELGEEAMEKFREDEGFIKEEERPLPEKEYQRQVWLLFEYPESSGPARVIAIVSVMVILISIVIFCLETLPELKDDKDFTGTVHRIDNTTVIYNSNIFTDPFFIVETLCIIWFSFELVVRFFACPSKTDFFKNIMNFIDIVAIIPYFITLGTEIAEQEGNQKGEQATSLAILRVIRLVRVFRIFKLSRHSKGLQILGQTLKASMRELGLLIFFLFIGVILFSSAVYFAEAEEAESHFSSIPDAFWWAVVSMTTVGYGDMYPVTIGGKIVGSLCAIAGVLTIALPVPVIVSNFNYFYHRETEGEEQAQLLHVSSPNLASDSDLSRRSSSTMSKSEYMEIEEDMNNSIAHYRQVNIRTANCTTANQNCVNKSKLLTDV

- EC50: 347 µM
SMILES: O=C(O)c1cccnc1Nc1cccc(C(F)(F)F)c1 [niflumic acid]
